# Data taken from US10517854B2, “Dosing regiments of celgosivir for the treatment of dengue” (60 Degrees Pharmaceuticals, LLC, priority 2013, dated 2019).
# Values joined by “and” are separate entries in the source; they are usually repeats but may differ in a detail not shown here. Equal values may be shown once. “Also recorded” adds a separate entry of the source. Read-outs that look alike come from different tables or passages of the source.
# Columns and labels:
# [1] = system: DENV2 (TSV01 strain); test: Cell-based flaviviral immunodetection assay (CFI), DENV2; conditions: Dengue virus, DENV2, BHK-21, 48 h, DENV2, BHK21 cells
# Experimental: BHK21 cells were seeded at 1.3×104 in 96-well plate and incubated overnight at 37° C. in 5% CO2 incubator. Confluent monolayer of BHK21 cells were infected with DENV2 (TSV01 strain) at an MOI (multiplicity of infection) 0.3 in the presence of various concentrations of test compounds and incubated for 1 hour at 37° C. in 5% CO2 incubator. Infected cells were incubated with test compounds for another 48 hours at 37° C. in 5A CO2. Cells were fixed with methanol and mouse monoclonal antibody 4G2 was used to detect DENV E protein, which was quantified using a secondary anti-mouse antibody conjugated with horseradish peroxidase (HRP). Absorbance was read at 450 nm and dose-response curve was plotted accordingly. The 50% effective concentration (EC50), that is, the concentration of the test compound that decreased the level of viral E protein production by 50%, was calculated by nonlinear regression analysis.
# [2] = system: DENV2; conditions: cited from earlier work
# [3] = system: DENV2 in THP-1 human monocytes; test: ADE infection of human monocytes (THP-1), plaque assay; format: cell-based; conditions: Dengue virus, THP-1, DENV2 + 4G2 antibody, 48 hours, read-out: EC50, suppression of viral replication under ADE condition
# Experimental: The activity of celgosivir in infected human monocytes, one of the primary circulating cell types infected by dengue virus, was examined, THP-1 cells were grown in RPMI-1640 maintenance medium containing 10% fetal calf serum and 1% Penicillin-streptomycin and cultured in 37° C. incubator supplemented with 5% CO2. For ADE infection in THP-1 cells, virus (DENV2, MOI-10) was mixed with sub-neutralizing concentration of humanized 4G2 monoclonal antibody (0.05 μg/0.5 ml) and allowed to incubate on ice for 1 hr in the serum free medium, to allow immune complex formations. The immune complex was then added on to THP-1 (1×10^5) cells per well in a 24 well plate and further incubated for 2 hours at 37° C. incubator. An excess unbound immune complex was then removed by spinning cells at 1000 rpm for 5 min and then cells were supplemented with complete growth maintenance medium. For drug testing in the ADE condition, cells were mock (untreated) or celgosivir-treated for 48 hours, and finally media supernatant was collected for plaque assay analysis.
# [4] = set-up: tmax: unit not given here; conditions: cited from earlier work
# [5] = system: DENV1; test: Cell-based flaviviral immunodetection assay (CFI), DENV1; conditions: Dengue virus, BHK-21; DENV1, BHK21 cells, 48 hours
# [6] = system: gastrointestinal α-amylase, sucrase, maltase; conditions: cited from earlier work
# [7] = system: DENV3; test: Cell-based flaviviral immunodetection assay (CFI), DENV3; conditions: Dengue virus, BHK-21; DENV3, BHK21 cells, 48 hours
# [8] = system: DENV2; test: Lethal ADE mouse model of viremia; format: in vivo
# Experimental: To model ADE, mice were injected IP (intraperitoneal) with […] of mouse monoclonal antibody against the (DENV) E protein (4G2 clone) one day prior to infection. (9) For treatment, celgosivir was injected IP once or twice daily for a total of 5 days. Mice were monitored every day till Day 12 post infection. The data were plotted as Kaplan-Meier curves using Prism 5.0 software.
# To evaluate the effect of dose and dose schedule, four drug regimens were studied in the ADE viremia model: 10, 25 and 50 mg/kg BID and 100 mg/kg QD (once daily). For the BID schedule, survival increased with increasing dose with survival rates of 13%, 63% and 100% for 10, 25, and 50 mg/kg BID.
# Even when treatment was delayed (FIG. 5A), celgosivir (50 mg/kg BID) exerted a protective effect. In this experiment, survival at Day 12 was 100%, 75%, and 50% when treatment was immediate, delayed 24 hr or delayed 48 hr after DENV2 infection, respectively, in the ADE model; by contrast, none (0%) of the sham-treated mice survived past day 5 (FIG. 5B). Viremia, as determined by plaque assay, in celgosivir-treated mice (50 mg/kg BID) was 8.3% of levels in sham-treated mice after only 1 day of dosing. By study day 3, viremia had increased in untreated mice by more than 7-fold.
# [9] = Pharmacokinetics mouse studies; conditions: in vivo
# Experimental: The concentration profile of celgosivir and castanospermine in the mouse after a single IP dose of celgosivir at a dose of 50 mg/kg is illustrated in FIG. 6A. Serum concentrations were measured using a validated LC/MS/MS assay performed. Celgosivir was measurable in serum only up to 1 hr post-dosing.
# The castanospermine concentration profile after dosing at 50 mg/kg BID for 5 days was calculated by nonparametric superposition (FIG. 6B). This dosing regimen of celgosivir protected 100% of mice in the lethal ADE dengue infection model.
# [10] = system: DENV2 infected BHK21; test: Fluorescence microscopy for NS1 in infected BHK21 cells; format: cell-based, dengue virus; conditions: 20 μM, 24 hr
# Experimental: BHK21 cells were infected with DENV2 and treated with 20 μM celgosivir or saline. After 24 hr incubation, cells were stained with nuclear stain diamidino-2-phenylindole (DAPI) or with a MAb against NS1 in conjunction with a secondary antibody conjugated with Alexa-488 (green), then examined by fluorescent microscopy for the presence of NS1, a marker for viral replication.
# [11] = system: EDEM, XBP1, CHOP; test: Host gene products during drug-induced unfolded protein response; format: cell-based; conditions: data not shown
# From the text: The pro-survival products enhance the clearance of misfolded proteins by directing them to the proteosome for degradation.
# [12] = system: DENV1-4; test: Inhibition of replication across dengue serotypes (CFI); format: cell-based; conditions: Dengue virus, DENV1 / DENV2, read-out: EC50 values for the other three serotypes
# [13] = cited from earlier work
# [14] = healthy rats, single dose 35 mg/kg PO
smiles,measurement,setting,value
"CCCC(=O)O[C@H]1CN2CC[C@H](O)[C@@H]2[C@@H](O)[C@@H]1O.Cl [Celgosivir, celgosivir]",EC50,[1],220 nM
same,reduction of viremia,[2]; given at the time of infection,88%
same,reduction of viremia,[2]; treatment delayed by 24 hours,55%
same,EC50,[3],500 nM
same,mean Cmax in the portal vein,[4]; 400 mg/kg celgosivir PO,1900 ng/mL
same,AUC,[4]; [14],10.5
same,Cmax,[4]; [14],8760 ± 1150 ng/mL
same,tmax,[4]; [14],0.44±0.01
same,AUC 0-60 min,"[4]; portal vein, 400 mg/kg celgosivir PO",1000 ng·h/mL
same,Oral bioavailability,[4]; rat,93%
same,half-life,[4]; rat,2.7 h
same,oral clearance (CL/F),[4]; rat,41.7 mL/min/kg
same,EC50,[5],650 ± 160 nM
same,"inhibition of gastrointestinal enzymes, comparison",[6],weaker inhibitor than castanospermine
same,EC50,[7],680 ± 20 nM
same,survival at Day 12,[8]; 10 mg/kg BID for 5 days,12% and 13%
same,survival at Day 12,[8]; 25 mg/kg BID for 5 days,62% and 63%
same,survival at Day 12,"[8]; 50 mg/kg BID for 5 days, immediate treatment",100%
same,"viremia, of levels in sham-treated mice","[8]; 50 mg/kg BID, after 1 day of dosing, plaque assay",8.3%
same,"viremia, of levels in sham-treated mice","[8]; 50 mg/kg BID, study day 3, delayed 24 hr",26%
same,"viremia, of levels in sham-treated mice","[8]; 50 mg/kg BID, study day 3, delayed 48 hr",69%
same,"viremia, of levels in sham-treated mice","[8]; 50 mg/kg BID, study day 3, immediate treatment",17%
same,survival at Day 12,"[8]; 50 mg/kg BID, treatment delayed 24 hr",75%
same,survival at Day 12,"[8]; 50 mg/kg BID, treatment delayed 48 hr",50%
same,survival (in words),[8]; 100 mg/kg once daily (QD),no mice survived past day 6; also recorded: none surviving past Day 6
same,survival at Day 12,[8]; 100 mg/kg once daily (QD),0%
same,absorption compared with castanospermine,[9],more rapidly and efficiently absorbed than castanospermine
same,species detected in plasma after celgosivir,[9],only castanospermine was detected in the plasma
same,time celgosivir measurable in serum post-dosing,"[9]; ip, 50 mg/kg",up to 1 hr
same,NS1 / viral replication by immunofluorescence,[10],almost complete suppression of viral replication; also recorded: very low levels of NS1
same,apoptotic markers such as CHOP,[11],down-regulated
same,pro-survival host gene products such as EDEM and XBP1,[11],upregulation
same,EC50,[12],310 to 650 nM
same,Cmax and AUC versus dose,[13]; humans,increase in proportion to dose
same,oral clearance,[13]; humans,12 L/h
same,terminal half-life,[13]; humans,18 h
same,conversion in humans,[13]; only castanospermine detected in plasma,rapidly convert to castanospermine
